Consider five compounds from PMC11118710, “GLP-1 and Its Derived Peptides Mediate Pain Relief Through Direct TRPV1 Inhibition Without Affecting Thermoregulation” (Research Square, 2024).

Assay [1] deals with CAP-induced thermal hyperalgesia in mice. Briefly: CAP-induced acute thermal hyperalgesia, Hargreaves test (PWL). Type of assay: in vivo, mouse (C57BL/6N). To be noted: CAP i.pl. (vehicle + CAP) vs vehicle.
Procedure: (§1) To evaluate nociceptive behavior, the time spent licking the paw, the paw withdrawal threshold (PWT) to mechanical stimuli, and the PWL to heat were measured as described previously[36].
(§2) Licking time was recorded for 5 min after CAP injection in each group. Mechanical allodynia and thermal hyperalgesia were evaluated in separate experiments in a time-dependent manner. Mechanical allodynia was assessed using von Frey filaments (NC12775–99; North Coast Medical, CA). The 50% PWT was calculated using the up-down method. Thermal hyperalgesia was assessed by recording PWL using the Hargreaves radiant heat apparatus (IITC Life Sciences, Woodland Hills, CA). A cutoff value of 20 s was used to prevent tissue damage.
Assay [2] relates to CAP-induced mechanical allodynia in mice. Briefly: CAP-induced acute mechanical allodynia, von Frey test (PWT). It counts as in vivo, mouse (C57BL/6N).
Procedure: as §1, §2
Assay [3] concerns TRPV1 (mouse DRG neurons). Briefly: whole-cell patch-clamp, CAP-induced inward currents in mouse DRG neurons. Type of assay: cell-based. Conditions: 100 nM CAP. The procedure:
DRGs were aseptically removed from 5–8-week-old mice and were incubated with collagenase A (0.2 mg/mL; Roche, Basel, Switzerland)/dispase-II (2.4 units/mL, Roche) at 37°C for 90 min. Cells were mechanically dissociated by gentle pipetting and placed on glass coverslips coated with poly-D-lysine.
DRG cells were then grown in a neurobasal-defined medium supplemented with 10% fetal bovine serum (FBS; Gibco, Waltham, MA), 2% B27 supplement (Invitrogen, Carlsbad, CA), and 1% penicillin/streptomycin for 24 h before experiments. Human TRPV1 (hTRPV1)-expressing CHO K1 cells were cultured using Dulbecco’s modified Eagle’s medium (DMEM) containing 10% FBS, 1% penicillin/streptomycin, and 800 μg/mL geneticin in an incubator with 5% CO2 at 37°C. HEK293 and HEK293T cells were also cultured in the same DMEM but without geneticin. […]
Whole-cell voltage-clamp and cell-attached patch-clamp recordings were conducted at room temperature to measure capsaicin (CAP)- or proton-induced currents in dissociated dorsal root ganglion (DRG) neurons and hTRPV1-expressing CHO K1 cells, respectively. […] CAP- or low pH-induced currents were recorded at a holding potential of − 60 mV. […] The data acquired were low-pass filtered at 2 kHz and sampled at 10 kHz, analyzed using PatchMaster and FitMaster (HEKA) software. […]
For orientation: Patch clamp records ionic current or voltage across a cell membrane.

Assay [4] concerns heat sensitivity in mice. Briefly: hot plate test, baseline heat sensitivity in naive mice. Type of assay: in vivo, mouse (C57BL/6N). To be noted: vs saline, n = 5. For orientation: Hot-plate and tail-flick tests time the reaction to a heat stimulus.
Procedure: The PWL to heat was measured after intraperitoneal administration of glucose (2.0 g/kg body weight) in a volume of 200 μL or after administration of the same volume of vehicle (0.9% saline) (n = 5 each).
A further assay has as its system rat TRPV1. Briefly: Ca2+ imaging, CAP-induced responses in HEK293T cells transfected with rat TRPV1. To be noted: no GLP-1R expression, 100 nM peptide, 100 nM CAP, vs control CAP. It counts as cell-based. The procedure:
DRG cells were then grown in a neurobasal-defined medium supplemented with 10% fetal bovine serum (FBS; Gibco, Waltham, MA), 2% B27 supplement (Invitrogen, Carlsbad, CA), and 1% penicillin/streptomycin for 24 h before experiments. Human TRPV1 (hTRPV1)-expressing CHO K1 cells were cultured using Dulbecco’s modified Eagle’s medium (DMEM) containing 10% FBS, 1% penicillin/streptomycin, and 800 μg/mL geneticin in an incubator with 5% CO2 at 37°C. HEK293 and HEK293T cells were also cultured in the same DMEM but without geneticin. Rat TRPV1 plasmids were labeled with a green fluorescent protein to indicate subsequent calcium imaging. cDNA constructs of rat TRPV1 were transiently transfected into cells using Lipofectamine 2000 (Invitrogen). Ca^2+ imaging was performed one day after transient transfection.
At room temperature, Ca^2+ imaging was conducted in mouse DRG, HEK293T, and hTRPV1-expressing CHO K1 cells. Cells on poly-D-lysine-coated coverslips were loaded with 2 μM Fura-2 AM (Thermo Fisher Scientific, Waltham, MA) at 37°C for 40 min in DMEM. The cells were then rinsed three times with the medium and incubated for 30 min, following which they were placed on the stage of an inverted microscope (BX51W1; Olympus, Tokyo, Japan) and continuously superfused at a flow speed of 1 mL/min with a bath solution containing 140 mM NaCl, 5 mM KCl, 1 mM CaCl2, 2 mM MgCl2, 10 mM HEPES, and 10 mM glucose, adjusted to pH 7.4 with NaOH. Using illumination with a 175-W xenon arc lamp, excitation wavelengths (340/380 nm) were selected using a Lambda DG-4 monochromator wavelength changer (Shutter Instrument, Novato, CA). The fluorescence 340/380 ratio was measured using digital video microfluorometry with an intensified camera (OptiMOS; QImaging, Surrey, Canada) coupled to the microscope. Data were analyzed using SlideBook 6 (Intelligent Imaging Innovations, Denver, CO). At the end of the experiment, cells were identified based on their response to high concentrations of KCl.

Assay [5] deals with T1, human TRPV1 (Homo sapiens, UniProt Q8NER1).
T1 construct: expressed in transfected cells; host or cells: CHO K1 cells stably expressing human TRPV1 (geneticin selection)
Briefly: Ca2+ imaging, CAP-induced responses in CHO K1 cells expressing human TRPV1. It counts as cell-based.
Procedure: (§3) At room temperature, Ca^2+ imaging was conducted in mouse DRG, HEK293T, and hTRPV1-expressing CHO K1 cells. […] The cells were then rinsed three times with the medium and incubated for 30 min, following which they were placed on the stage of an inverted microscope (BX51W1; Olympus, Tokyo, Japan) and continuously superfused at a flow speed of 1 mL/min with a bath solution containing 140 mM NaCl, 5 mM KCl, 1 mM CaCl2, 2 mM MgCl2, 10 mM HEPES, and 10 mM glucose, adjusted to pH 7.4 with NaOH. […] The fluorescence 340/380 ratio was measured using digital video microfluorometry with an intensified camera (OptiMOS; QImaging, Surrey, Canada) coupled to the microscope. Data were analyzed using SlideBook 6 (Intelligent Imaging Innovations, Denver, CO). At the end of the experiment, cells were identified based on their response to high concentrations of KCl.

Assay [6] concerns TRPV1 (mouse DRG neurons). Briefly: Ca2+ imaging, CAP-induced responses in mouse DRG neurons. Type of assay: cell-based. Conditions: 100 nM CAP, Fura-2 340/380 ratio; for CAP-induced Ca2+ responses, significance: vs control CAP.
Procedure: as §3
Assay [7] has as its system CAP-induced spontaneous pain behavior in mice. Briefly: CAP-induced spontaneous paw licking time. Conditions: CAP 1.6 μg i.pl., n = 5. It counts as in vivo, mouse (C57BL/6N).
Procedure: as §1, §2
Assay [8] deals with heat sensitivity in mice. Briefly: Hargreaves radiant heat test, naive mice, intraplantar administration. It counts as in vivo, mouse (C57BL/6N). Conditions: 10 μg intraplantar; vs saline; n = 5.
The test system of another assay is GLP-1R. Also noted: method as in PMID 9525985. Conditions: cited from earlier work.
Assay [9] has as its system SNI-induced heat hyperalgesia in mice. Briefly: SNI-induced neuropathic pain, heat hyperalgesia, Hargreaves test. Type of assay: in vivo, mouse. To be noted: for SNI heat hyperalgesia, onset of relief / SNI heat hyperalgesia, time of peak relief: post-administration; for SNI-induced heat hyperalgesia: n = 7. An excerpt:
Under continuous anesthesia with isoflurane, mice underwent surgical manipulation to expose the left sciatic nerve by separating the muscle tissue. Upon visualization of the sciatic nerve, the peroneal and tibial nerves were ligated and transected at the lower end of the ligature using silk thread, while the sural nerve remained intact. The surgical site was then sutured, and iodine was applied for debridement. […] Subsequently, the heat sensitivity of the neuropathic pain model mice was assessed using the Hargreaves test.

In assay [10] the target is T1, human TRPV1. Briefly: inside-out single-channel recording, hTRPV1-expressing CHO K1 cells. It counts as cell-based. The protocol:
Inside-out recordings from hTRPV1-expressing CHO K1 cells were conducted using a pipette resistance of 8–9 MΩ. The internal solution for inside-out recordings matched that used for whole-cell and cell-attached methods, whereas the external solution (intracellular side) differed slightly, containing 2 mM CaCl2 instead of EGTA. The open probability and average single-channel opening and closing times for inside-out recordings were analyzed using a 50% threshold criterion, with all events double-checked before analysis.

Assay [11] deals with T1, human TRPV1. Briefly: patch-clamp, proton (low pH)-induced TRPV1 currents in hTRPV1-expressing CHO K1 cells. Conditions: 1 μM; pH 5.5; −60 mV. Type of assay: cell-based.
Procedure: (§4) Whole-cell voltage-clamp and cell-attached patch-clamp recordings were conducted at room temperature to measure capsaicin (CAP)- or proton-induced currents in dissociated dorsal root ganglion (DRG) neurons and hTRPV1-expressing CHO K1 cells, respectively. An EPC10 amplifier (HEKA, Stuttgart, Germany) was utilized for these recordings. Patch pipettes, prepared with a micropipette puller (Narishige, Tokyo, Japan), had resistances of 4–5 MΩ for whole-cell recordings and 6–8 MΩ for cell-attached recordings. The recording chamber, with a volume of 500 μL, was continuously superfused at a rate of 1–2 mL/min. CAP- or low pH-induced currents were recorded at a holding potential of − 60 mV. Series resistance was compensated (> 80%), and leak subtraction was performed. The data acquired were low-pass filtered at 2 kHz and sampled at 10 kHz, analyzed using PatchMaster and FitMaster (HEKA) software. […] The external solution of 140 mM NaCl, 5 mM KCl, 1 mM MgCl2, 2 mM EGTA, 10 mM HEPES, and 10 mM glucose, adjusted to pH 7.4 with NaOH, osmolarity 300–310 mOsm, was used for both techniques.
The target in assay [12] is T1, human TRPV1. Briefly: Ca2+ imaging, proton-induced calcium influx in hTRPV1-expressing CHO K1 cells. Type of assay: cell-based. To be noted: 1 μM; pH 5.5.
Procedure: as §3
The next assay concerns TRPA1. Briefly: AITC-induced TRPA1 currents (subtype selectivity). Type of assay: cell-based. To be noted: 100 μM AITC; Supplementary Fig. 4.
Assay [13] deals with T1, human TRPV1. Briefly: patch-clamp, CAP-induced inward currents in CHO K1 cells expressing human TRPV1. Type of assay: cell-based. To be noted: competition with BCTC / CAP.
Procedure: as §4
[14] abbreviates: exendin 9–39 10 μg intraperitoneal.
Setting [15] is: exendin 9–39 10 μg intraplantar.

Entries after “also recorded” stand apart in the source; their conditions may differ.

T1 sequence (Q8NER1 whole entry): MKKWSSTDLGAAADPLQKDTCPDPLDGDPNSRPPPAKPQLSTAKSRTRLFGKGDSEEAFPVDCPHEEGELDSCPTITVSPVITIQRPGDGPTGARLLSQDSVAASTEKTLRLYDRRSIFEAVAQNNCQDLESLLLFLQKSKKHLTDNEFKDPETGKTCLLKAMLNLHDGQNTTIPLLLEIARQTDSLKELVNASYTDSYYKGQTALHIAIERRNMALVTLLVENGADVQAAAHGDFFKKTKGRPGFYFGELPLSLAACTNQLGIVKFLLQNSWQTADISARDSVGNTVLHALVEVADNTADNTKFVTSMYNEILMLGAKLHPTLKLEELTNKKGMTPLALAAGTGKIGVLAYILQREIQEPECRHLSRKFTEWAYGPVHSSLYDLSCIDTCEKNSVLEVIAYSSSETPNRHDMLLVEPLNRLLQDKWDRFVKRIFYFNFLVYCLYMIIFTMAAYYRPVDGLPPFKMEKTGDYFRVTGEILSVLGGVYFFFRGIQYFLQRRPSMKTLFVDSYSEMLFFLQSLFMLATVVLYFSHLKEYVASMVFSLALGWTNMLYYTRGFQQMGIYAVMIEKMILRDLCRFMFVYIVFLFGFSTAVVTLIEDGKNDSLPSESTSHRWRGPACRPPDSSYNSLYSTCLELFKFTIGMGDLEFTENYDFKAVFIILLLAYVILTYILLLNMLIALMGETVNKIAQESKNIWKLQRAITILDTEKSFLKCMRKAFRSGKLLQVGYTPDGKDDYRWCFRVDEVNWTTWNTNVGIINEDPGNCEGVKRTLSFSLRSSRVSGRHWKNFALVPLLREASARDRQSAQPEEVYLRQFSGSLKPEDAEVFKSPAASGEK

Take `COc1cc(CNC(=O)CCCC/C=C/C(C)C)ccc1O` [CAP, capsaicin]: the “paw withdrawal latency (PWL), Hargreaves test” value in assay [1] is listed as “significantly lower in the vehicle + CAP than vehicle groups from 30 to 120 min”. For the same compound, the “paw withdrawal threshold (PWT), von Frey test” value in [2] (CAP i.pl. vs vehicle) is on record as “significantly reduced the PWT in the von Frey test from 30 to 120 min”. Further, the “CAP-induced inward currents (agonist effect)” value in [3] is “elicited inward currents”.
Consider `OC[C@H]1OC(O)[C@H](O)[C@@H](O)[C@@H]1O` (stereo partly drawn) [glucose], for which the “heat sensitivity, hot plate test” value in the assay on heat sensitivity in mice [4] (glucose 2 g/kg i.p., 200 μL) is given as “exhibited a decrease in heat sensitivity as compared with the vehicle-treated group”.
With `CCCCCCCCCCCCCCCC(=O)N[C@@H](CCC(=O)NCCCC[C@H](NC(=O)[C@H](C)NC(=O)[C@H](C)NC(=O)[C@H](CCC(N)=O)NC(=O)CNC(=O)[C@H](CCC(=O)O)NC(=O)[C@H](CC(C)C)NC(=O)[C@H](Cc1ccc(O)cc1)NC(=O)[C@H](CO)NC(=O)[C@H](CO)NC(=O)[C@@H](NC(=O)[C@H](CC(=O)O)NC(=O)[C@H](CO)NC(=O)[C@@H](NC(=O)[C@H](Cc1ccccc1)NC(=O)[C@@H](NC(=O)CNC(=O)[C@H](CCC(=O)O)NC(=O)[C@H](C)NC(=O)[C@@H](N)Cc1c[nH]cn1)[C@@H](C)O)[C@@H](C)O)C(C)C)C(=O)N[C@@H](CCC(=O)O)C(=O)N[C@@H](Cc1ccccc1)C(=O)N[C@H](C(=O)N[C@@H](C)C(=O)N[C@@H](Cc1c[nH]c2ccccc12)C(=O)N[C@@H](CC(C)C)C(=O)N[C@H](C(=O)N[C@@H](CCCNC(=N)N)C(=O)NCC(=O)N[C@@H](CCCNC(=N)N)C(=O)NCC(=O)O)C(C)C)[C@@H](C)CC)C(=O)O` [liraglutide], the “CAP-induced TRPV1 calcium responses” value in the assay with rat TRPV1 is reported as “****p <.0001, compared with each control CAP”. The compound further gave a LogIC50 on human TRPV1 [5] (CHO K1 human TRPV1, logistic fit, IC50 in nM, Fig. 5h) of 1.81. For the same compound, the “CAP-induced Ca2+ responses, significance” value in [6] was “****p<.0001, compared with control CAP”. For the same compound, the “reduction of CAP-induced Ca2+ responses” value in assay [6] (100 nM peptide pretreatment, room temperature) is 58.1%.
For GLP-1(7–36), the CAP-induced licking behavior entry in assay [7] (GLP-1(7–36) 10 μg i.pl. for 10 min) is given as “****p<.0001, compared with the saline group; also recorded: significantly reduced pain-like (licking) behavior”. In addition, the “heat sensitivity (pain sensitivity), Hargreaves test” value in the assay with heat sensitivity in mice [8] was “a reduction in pain sensitivity”. For the same compound, in the assay on heat sensitivity in mice [4] (GLP-1(7–36) 10 μg/kg i.p.), the “heat sensitivity, hot plate test” value is on record as “a reduction in heat sensitivity from 1 h”. In addition, in the assay with rat TRPV1, the “CAP-induced TRPV1 calcium responses” value was “****p <.0001, compared with each control CAP”. Besides, in assay [6], the “CAP-induced Ca2+ responses, significance” value was “****p<.0001, compared with control CAP”.
For the compound exendin 9–39, the CAP-induced paw-licking time entry in assay [7] (exendin 9–39 5 and 10 μg i.pl., BCTC 0.5 μg, recorded 5 min) is listed as “dose-dependent reduction in paw-licking time, similar to the effect observed with BCTC (0.5 μg) as the control”. For the same compound, the GLP-1 antagonism entry in the assay on GLP-1R is “specific and competitive antagonist of GLP-1”. Also, the “heat sensitivity (pain sensitivity), Hargreaves test” value in the assay with heat sensitivity in mice [8] is listed as “decreased heat sensitivity upon intraplantar injection”. Further, in assay [9] (setting [14]), the “SNI heat hyperalgesia, onset of relief” value came to 1 h; the “SNI heat hyperalgesia, time of peak relief” value was found to be 3 h; the SNI-induced heat hyperalgesia entry was “alleviated heat hyperalgesia”. In addition, in assay [9] (exendin 9–39 10 μg intraplantar, 14 days after SNI), the SNI-induced heat hyperalgesia result was “alleviated heat hyperalgesia”. In assay [9] (setting [15]), the “SNI heat hyperalgesia, onset of relief” value is recorded as 1 h and the “SNI heat hyperalgesia, time of peak relief” value was found to be 3 h. Besides, on human TRPV1 [10] (cell-attached and inside-out recordings), the “side of TRPV1 binding” value is “binds to the extracellular side of TRPV1 but cannot penetrate the membrane”. Further, at human TRPV1 [10] (pipette solution (extracellular side): 100 nM exendin 9–39, CAP 10 nM intracellular, −60 mV), the single-channel opening events entry is given as “the single-channel openings blocked”. On human TRPV1 [11], the proton-induced inward currents result is “did neither reduce nor potentiate low pH-induced inward currents; also recorded: did not block or potentiate proton-induced channel activity”. Also, the proton-induced calcium influx result on human TRPV1 [12] is given as “did neither reduce nor potentiate”. Besides, at human TRPV1 [5] (100 nM peptide, 100 nM CAP, one-way ANOVA, Dunnett vs control CAP), the “CAP-induced calcium influx, CHO K1 human TRPV1” value is on record as “****p <.0001, compared with control CAP”. The “effect on TRPA1 currents” value with TRPA1 is on record as “did not inhibit or potentiate TRPA1 currents”. The “CAP-induced mechanical allodynia, von Frey test” value in [2] (exendin 9–39 5 or 10 μg, BCTC 0.5 μg, i.pl., n = 5) is recorded as “mechanical allodynia was dose-dependently alleviated”. Further, the “mode of inhibition of CAP-induced TRPV1 activation” value on human TRPV1 [13] was “noncompetitive inhibitor of CAP; also recorded: does not share the binding site with CAP and inhibits TRPV1 activation by interacting noncompetitively with CAP”.
